In the NIST ThermoML archive (doi:10.1021/acs.jced.7b01006):

Experiment: xn = mol fraction of the nth substance listed
Details: 100 kPa, Liquid; for electrical conductivity: Alternating current cell with electrodes; for viscosity: Falling or rolling sphere viscometry; for mass density: Vibrating tube method

CCC[n+]1ccn(C)c1C.N#C[S-] [1,2-dimethyl-3-propylimidazolium thiocyanate] + CC#N
Details	electrical conductivity [S/m]	mass density [kg/m3]	viscosity [mPa·s]
308.15 K, x1 = 0.1002	6.49	867.37	1.998
308.15 K, x1 = 0.2002	5.83	934.26	4.904
308.15 K, x1 = 0.2998	5.16	981.65	9.381
308.15 K, x1 = 0.4001	3.77	1016.47	15.33
308.15 K, x1 = 0.4997	2.35	1040.37	22.87
308.15 K, x1 = 0.5998	1.98	1055.91	32.68
308.15 K, x1 = 0.7002	1.59	1066.65	43.59
308.15 K, x1 = 0.7999	1.18	1075.33	55.98
308.15 K, x1 = 0.8999	0.874	1082.59	69.61
308.15 K, x1 = 1	0.733	1087.57	83.42
313.15 K, x1 = 0.1002	6.81	862.96	1.461
313.15 K, x1 = 0.2002	6.22	930.69	3.715
313.15 K, x1 = 0.2998	5.62	978.11	7.289
313.15 K, x1 = 0.4001	4.18	1013.36	11.81
313.15 K, x1 = 0.4997	2.71	1037.38	17.46
313.15 K, x1 = 0.5998	2.31	1053.06	24.53
313.15 K, x1 = 0.7002	1.88	1063.86	32.94
313.15 K, x1 = 0.7999	1.42	1072.65	42.28
313.15 K, x1 = 0.8999	1.06	1079.86	53.18
313.15 K, x1 = 1	0.905	1084.55	64.78
318.15 K, x1 = 0.1002	7.13	858.59	1.077
318.15 K, x1 = 0.2002	6.61	927.1	2.907
318.15 K, x1 = 0.2998	6.1	974.43	5.635
318.15 K, x1 = 0.4001	4.61	1010.2	9.215
318.15 K, x1 = 0.4997	3.11	1034.36	13.52
318.15 K, x1 = 0.5998	2.67	1050.24	18.99
318.15 K, x1 = 0.7002	2.22	1060.96	25.5
318.15 K, x1 = 0.7999	1.69	1069.97	32.82
318.15 K, x1 = 0.8999	1.26	1077.03	41.2
318.15 K, x1 = 1	1.1	1081.54	50.96
323.15 K, x1 = 0.1002	7.45	854.24	0.775
323.15 K, x1 = 0.2002	7.01	923.56	2.285
323.15 K, x1 = 0.2998	6.58	970.89	4.456
323.15 K, x1 = 0.4001	5.05	1006.99	7.216
323.15 K, x1 = 0.4997	3.52	1031.23	10.53
323.15 K, x1 = 0.5998	3.08	1047.39	14.68
323.15 K, x1 = 0.7002	2.6	1060	19.99
323.15 K, x1 = 0.7999	2	1070	25.88
323.15 K, x1 = 0.8999	1.5	1074.33	33.37
323.15 K, x1 = 1	1.33	1078.54	41.55
